# Assay results taken from patent US6084097A, “Methods for preparing 1-[4-arylpiperazin-1-yl]-3-[2-oxopyrrolidin/piperidin-1-yl] propanes” (Council of Scientific & Industrial Research, priority 1997, dated 2000).
# How the values were obtained:
# [1] = test system: anaesthetized cat; experiment: Effect on blood pressure, heart rate and adrenaline vasopressure response at anaesthetized cat; assay type: in vivo
# Experimental: Effect on blood pressure, heart rate and adrenaline
# (§1) (a) Cats (2.6-4.0 kg) of either sex anaesthetized with pentobarbitone sodium (40 mg/kg i.v.) and showing basal mean arterial blood pressure below 150 mm (Hg) were categorised as normotensive and above 150 mm Hg as hypertensive. Arterial blood pressure (EP) was recorded from one of the carotid artery through a stathum P23 DC pressure transducer and 7P1 low level DC preamplifier on a Grass Model P7 Polygraph, Signals from 7P1 preamplifier were used to trigger 7P4 Tachograph preamplifier for recording the heart rate (HR). Right femoral vein and Trachea were cannulated for intravenous injections and artificial ventilation respectively. Control responses to intravenous injection of noradrenaline (2-4 ug); acetyl choline (1-2 ug); histamine (1-2 ug) and isoprenaline (1-2 ug) were taken before and after the administration of test doses of each compounds.
# [2] = test system: Naturally occurring hypertensive cat; experiment: Effect on blood pressure, heart rate and adrenaline vasopressor response, naturally occurring hypertensive cat; assay type: in vivo; details: n = 4
# Experimental: (§2) 2. Effect on blood pressure, heart rate and adrenaline vasopressor response of anaesthetized (pentobarbitone sodium 40 & 60 mg/kg i.p. in cat and rat respectively) normotensive & hypertensive rat & cat model preparations.
# as §1
# [3] = test system: Normotensive cat; experiment: Effect on blood pressure, heart rate and adrenaline vasopressor response, normotensive cat; assay type: in vivo; details: n = 4
# Experimental: as §2, §1
# [4] = test system: Hypertensive rat model preparation; experiment: Effect on blood pressure, heart rate and adrenaline vasopressor response, hypertensive rat model preparation; assay type: in vivo
# Experimental: as §2
# [5] = test system: Normotensive rat model preparation; experiment: Effect on blood pressure, heart rate and adrenaline vasopressor response, normotensive rat model preparation; assay type: in vivo; details: n = 2
# Experimental: as §2
# [6] = Site of action: ICV; assay type: in vivo; details: dose 0.34-1.36
# [7] = test system: Isolated aortic strip; experiment: Isolated aortic strip, endothelin induced contraction
# [8] = test system: Isolated Guinea pig ileum; experiment: Isolated Guinea pig ileum preparation; details: in vitro
# [9] = test system: perfused rat heart; experiment: Langendorffs perfused rat heart preparation, chronotropic effect
# [10] = test system: Rat aortic ring; experiment: Rat aortic ring preparation, NE induced contraction; details: in vitro
# [11] = test system: cat; experiment: Drug antagonism studies at 2 uMol dose i.v. in cat; assay type: in vivo; details: 2 uMol i.v.
# Excerpt: (B) In viva Drug antagonism studies at 2 uMol dose i.v. in cat: […]
# [12] = test system: Langendorff perfused rat heart; experiment: Cardioprotective activity, Langendorff perfused rat heart, prolong period of ischemic insult
# Experimental: Further, in Langendorff perfused rat heart preparation subjected to even up to 90 mm. global ischemia, the compound at 0.001 ug/ml conc.
# The rats were killed by decaptitation, heart were rapidly excised and placed in ice-cold HEPES tyrode buffer. Then isolated hearts were perfused retrogradely through coronary arteries using the Langendorff technique. The perfusion buffer consisted (in mM) NaCl 137, KCl 5.4, CaCl2 1.8, MgCl2 1.0, glucose 11.2 and HEPES 3.0. The buffer (pH 7.4) was continuously gassed with oxygen and maintained at 37° C. Coronary flow rate was maintained at 10 ml/min. The heart contracted spontaneously.
# The perfused heart was allowed to equillibrate for 30 min. before initiation of any insult protocol. The test compounds were given at the time of reperfusion. Some of the compounds were dissolved in ethanol. Final concentration of ethanol in the perfusion buffer was 0.0001% and had no effect of its own on the parameter used.
# (b) For prolong period of ischemic insult (Becker, L. C. & Ambrosio, G. Myocardial consenquences of reperfusion. Prog. Cardiovas. Dis., 30, 23-44, 1987). Ischemia was initiated by stopping the flow for 30 min. followed by 30 min. reperfusion.
# [13] = Felis catus, iv, 10.0 umol/kg i.v., read-out: B.P. fall %
# [14] = Felis catus, iv, 2.0 umol/kg i.v.
# [15] = Felis catus, iv, 10.0 umol/kg i.v.
# [16] = 0.001 ug/ml at the time of reperfusion, up to 90 mm. global ischemia
compound,measurement,setting,value
"O=C1CCCN1CCCN1CCN(c2ccccn2)CC1 [2-Pyridyl, n=1]",Adrenaline vasopressure response (R/Pt),[1]; 10.0 umol/kg i.v.,Pt (potentiation (was within 20%))
same,Blood pressure fall % at 2 µmol/kg,"[1]; Felis catus, iv, 2.0 umol/kg i.v., read-out: B.P. fall %",22%
same,Blood pressure fall % at 10 µmol/kg,[1]; [13],40%
"O=C1CCCCN1CCCN1CCN(c2ccccn2)CC1 [2-Pyridyl, n=2, 1-[4-(2-pyridyl)piperazin-1-yl]-3-[2-oxopiperidin-1-yl]propane]",Adrenaline vasopressure response (R/Pt),[1]; 10.0 umol/kg i.v.,Pt (potentiation (was within 20%))
same,inhibition in vivo at 2 µmol/kg,[1]; [14],28%
"CCc1ccccc1N1CCN(CCCN2CCCC2=O)CC1 [C6 H4-2-C2 H5, n=1, 1-[4-(2-ethylphenyl)piperazin-1-Yl]-3-[2-oxopyrrolidin-1-yl]propane]",Adrenaline vasopressure response (R/Pt),[1]; 2.0 umol/kg i.v.,Pt (potentiation (was within 20%))
"COc1ccccc1N1CCN(CCCN2CCCC2=O)CC1 [C6 H4-2-OCH3, n=1]",B.P. fall %,[1]; 2.0 umol/kg i.v.,19%
same,Adrenaline vasopressure response (R/Pt),[1]; 10.0 umol/kg i.v.,R
same,Blood pressure fall % at 10 µmol/kg,[1]; [13],23%
"O=C1CCCCN1CCCN1CCN(c2cccc(C(F)(F)F)c2)CC1 [C6 H4-3-CF3, n=2, 1-[4-(3-trifluoromethylphenyl)piperazin-1-yl]-3-[2-oxopiperidin-1-yl]propane]",Adrenaline vasopressure response (R/Pt),[1]; 2.0 umol/kg i.v.,Pt (potentiation (was within 20%))
same,Dur.,[1]; 10.0 umol/kg i.v.,Tr
same,inhibition in vivo at 10 µmol/kg,[1]; [15],25%
"O=C1CCCN1CCCN1CCN(c2cccc(Cl)c2)CC1 [C6 H4-3-Cl, n=1, 1-[4-(3-chlorophenyl)piperazin-1-yl]-3-[2-oxopyrrolidin-1-yl]propane]",Adrenaline vasopressure response (R/Pt),[1]; 2.0 umol/kg i.v.,Pt-
"O=C1CCCCN1CCCN1CCN(c2cccc(Cl)c2)CC1 [C6 H4-3-Cl, n=2, 1-[4-(3-chlorophenyl)piperazin-1-yl]-3-[2-oxopiperidin-1-yl]propane]",inhibition in vivo at 2 µmol/kg,[1]; [14],33%
same,inhibition in vivo at 10 µmol/kg,[1]; [15],10%
"O=C1CCCN1CCCN1CCN(c2cccc(F)c2)CC1 [C6 H4-3-F, n=1, 1-[4-(3-fluorophenyl)piperazin-1-yl)-3-[2-oxopyrrolidin-1-yl]propane]",Adrenaline vasopressure response (R/Pt),[1]; 10.0 umol/kg i.v.,R
same,inhibition in vivo at 2 µmol/kg,[1]; [14],80%
"O=C1CCCCN1CCCN1CCN(c2ccc(Cl)cc2)CC1 [C6 H4-4-Cl, n=2, 1-[4-(4-chlorophenyl)piperazin-1-yl]-3-[2-oxopiperidin-1-yl]propane]",inhibition in vivo at 2 µmol/kg,[1]; [14],20%
same,inhibition in vivo at 10 µmol/kg,[1]; [15],25%
"O=C1CCCN1CCCN1CCN(c2ccc(F)cc2)CC1 [C6 H4-4-F, n=1, 1-[4-(4-fluorophenyl)piperazin-1-yl]-3-[2-oxopyrrolidin-1-yl]propane]",Adrenaline vasopressure response % inhibition,[2]; 10 uMol/kg i.d.,49%
same,B.P. Fall duration,[2]; 10 uMol/kg i.d.,110 min
same,"Adrenaline vasopressure response, R (Reversal)",[2]; 20 uMol/kg i.d.,26%
same,B.P. Fall duration,[2]; 20 uMol/kg i.d.,> 156.75 min
same,Adrenaline vasopressure response % inhibition,[3]; 10 uMol/kg i.d.,26%
same,B.P. Fall duration,[3]; 10 uMol/kg i.d.,85 min
same,B.P. Fall duration,[3]; 20 uMol/kg i.d.,> 102.5 min
same,Adrenaline vasopressure response % inhibition,"[4]; 5 uMol/kg i.d., n = 3",33%
same,B.P. Fall duration,"[4]; 5 uMol/kg i.d., n = 3",51 min
same,Adrenaline vasopressure response % inhibition,"[4]; 10 uMol/kg i.d., n = 5",23%
same,B.P. Fall duration,"[4]; 10 uMol/kg i.d., n = 5",76 min
same,Adrenaline vasopressure response % inhibition,"[4]; 20 uMol/kg i.d., n = 1",54%
same,B.P. Fall duration,"[4]; 20 uMol/kg i.d., n = 1",100 min
same,Adrenaline vasopressure response % inhibition,[5]; 2 uMol/kg i.v.,+7%
same,Adrenaline vasopressure response % inhibition,[5]; 10 uMol/kg i.v.,+14%
same,Adrenaline vasopressure response % inhibition,[5]; 20 uMol/kg i.v.,-9.5%
same,B.P. fall Dur.,[6],10 to 15 min
same,Endothelin response after washing the preparation,[7]; after washing the preparation,relaxation rather than contraction
same,Endothelin induced contraction,[7]; in vitro,inhibited significantly
same,Endothelin response,[8],relaxation rather than contraction
same,"Negative chronotropic effect, duration",[9]; 1 ug,10 min
same,"Negative chronotropic effect, duration",[9]; 3 ug (higher doses 3-5 ug),14 min
same,"Negative chronotropic effect, duration",[9]; 5 ug (higher doses 3-5 ug),5 min
same,inhibition at 0.001 mg,"[9]; Rattus norvegicus, 1 ug, read-out: Negative chronotropic effect",30%
same,inhibition at 0.003 mg,"[9]; Rattus norvegicus, 3 ug (higher doses 3-5 ug), read-out: Negative chronotropic effect",26%
same,inhibition at 0.005 mg,"[9]; Rattus norvegicus, 5 ug (higher doses 3-5 ug), read-out: Negative chronotropic effect",5%
same,NE induced contraction,[10],inhibited
same,Reduction of antihypertensive effect by pretreatment,[11]; Dup-753 (angiotension II-receptor antagonist) pretreatment,33%
same,Antihypertensive effect after pretreatment,[11]; atropine sulphate pretreatment,failed to alter
same,Reduction of antihypertensive effect by pretreatment,[11]; captopril (ACE inhibitor) pretreatment,33%
same,Fall in blood pressure after pretreatment,[11]; glibenclamide (KATP blocker) pretreatment,only partially reduced
same,Antihypertensive effect after pretreatment,[11]; mepyramine maleate pretreatment,failed to alter
same,Reduction of antihypertensive effect by pretreatment,"[11]; prazosin (alpha1-adrenergic receptor blocker) pretreatment, significantly",90%
same,Antihypertensive effect after pretreatment,[11]; propranolol pretreatment,failed to alter
same,Reduction of antihypertensive effect by pretreatment,"[11]; verapamil (Ca++ channel blocker) pretreatment, significantly",50%
same,Antihypertensive effect after pretreatment,[11]; yohimbine pretreatment,failed to alter
same,Incidence of reperfusion induced arrhythmia,[12]; [16],abolished
same,"Revival of normal rhythmic contraction, start",[12]; [16],≤ 2 mm.
same,"Cardioprotective effect against myocardial stunning, dose",[12]; compared with antihypertensive dose,much smaller dose than antihypertensive dose
same,Adrenaline vasopressure response (R/Pt),[1]; 10.0 umol/kg i.v.,R
same,inhibition in vivo at 2 µmol/kg,[1]; [14],9%
"O=C1CCCCN1CCCN1CCN(c2ccc(F)cc2)CC1 [C6 H4-4-F, n=2, 1-[4-(4-fluorophenyl)piperazin-1-yl]-3-[2-oxopiperidin-1-yl]propane]",Adrenaline vasopressure response (R/Pt),[1]; 10.0 umol/kg i.v.,R
same,inhibition in vivo at 2 µmol/kg,[1]; [14],46%
